Assay results reported in US9555028B2, “Drug for preventing/treating ocular disease” (JAPAN BIO PRODUCTS CO., LTD., priority 2012, dated 2017).

Columns and labels:
[1] = system: Muc5ac secretion from conjunctival tissue; experiment: Ex vivo Muc5ac secretion from conjunctival tissue, culture supernatant quantified by ELISA; assay type: cell-based, white rabbit; conditions: for amount of Muc5ac in culture supernatant in the presence of Compound 1: n=5, FIG. 1(b)
Procedure: In order to examine an effect of Compound 1 on an amount of Muc5ac secretion, ex vivo experiments were carried out using a conjunctival tissue from a white rabbit (Slc:JW/CSKSlc:NZW strain).
Specifically, a trephine with a diameter of 3 mm was used to sample a conjunctival tissue from a white rabbit. Next, the tissue sample was soaked in an HBSS containing 100 μM of Compound 1 for 90 minutes, 3 hours, 6 hours, or 12 hours. The conjunctival tissue of the control group was soaked in an HBSS having a physiological saline with a volume equal to that of Compound 1. After the conjunctival tissue was soaked for a predetermined time, its culture supernatant was collected. For each group, the experiment was performed at n=5.
The amount of Muc5ac included in the culture supernatant was detected using the following assay.
Assay for Muc5ac Secretion (ELISA Assay)
First, the culture supernatant of the conjunctival tissue of the control group was diluted using an HBSS, and a standard curve was prepared at a Muc5ac concentration of 500, 250, 125, 62.5, 31.25, 15.63, and 7.81 AU/mL (AU represents an arbitrary unit). The sample solutions were diluted with an HBSS in such a manner that absorbance at a wavelength of 450 nm was fitted within a range of the absorbance of the standard curve at a wavelength of 450 nm. Next, the solutions for the standard curve, the sample solutions for the test group, and the sample solutions for the control group were added to a 96-well microplate (#3590, manufactured by Corning Incorporated) at 100 μL/well, and were incubated overnight at 40° C. For each sample, the measurement was performed at n=2.
After the solutions for the standard curve and the sample solutions were removed, 200 μL of washing buffer was used to wash the wells three times. The washing buffer (hereinafter, also referred to as a TBST solution) was prepared by adding Tween-20 at a final concentration of 0.05% to Tris buffered saline (pH 7.6).
Then, 200 μL of blocking buffer (1% bovine serum albumin-containing TBST solution) was added to each well, and the plate was incubated at room temperature for 1 hour. After the blocking buffer had been removed, a primary antibody (an anti-human Muc5ac antibody, manufactured by NeoMarkers, Inc.; Clone 45M1) solution, which was 100-fold diluted with the blocking buffer, was added to the plate at 100 μL/well, and the plate was incubated at room temperature for 1 hour. After the primary antibody solution was removed, 200 μL of the washing buffer was used to wash the wells three times.
Then, a secondary antibody (an HRP-labelled sheep anti-mouse IgG antibody, manufactured by GE Healthcare, Inc.) solution, which was 2000-fold diluted with the blocking buffer, was added to the plate at 100 μL/well, and the plate was incubated at room temperature for 1 hour. After the secondary antibody solution was removed, 200 μL of the washing buffer was used to wash the wells three times.
In order to quantify the Muc5ac content in each sample, 100 μL of 3,3′,5,5′-tetramethylbenzidine was added to each well and the plate was incubated for coloring at room temperature for 30 minutes; and then 100 μL of 0.5 M sulfuric acid solution was added to each well to stop the reaction. Next, a microplate reader was used to measure the absorbance of each well at a wavelength of 450 nm. The Muc5ac content in each sample was calculated using the standard curve. […]
The amount of Muc5ac included in the culture supernatant was detected using the same ELISA assay as in Example 1.

[2] = system: Muc5ac protein in conjunctival tissue; experiment: In vivo instillation, then amount of Muc5ac protein in conjunctival tissue lysate (ELISA); design: species or system white rabbit; conditions: 100 μM instilled 4 times per day for 3 days; tissue lysate at 500 ng/μL protein, FIG. 4b
Procedure: (§1) Specifically, the right eye of a white rabbit was subjected to instillation administration of a solution containing 100 μM of Compound 1, which had been dissolved in a physiological saline solution, at a dosage of 30 μL to 50 μL/dose 4 times per day. The left eye was subjected to instillation administration of a physiological saline solution as a control at a dosage of 30 μL to 50 μL/dose 4 times per day. For each group, the experiment was performed at n=6.
After 3 days with the above administration, each white domestic rabbit was euthanized and its conjunctival tissue was sampled using a trephine with a diameter of 5 mm. […] The amount of Muc5ac included in the culture supernatant was quantified using the same ELISA assay as in Example 1.
Meanwhile, 150 μL of SDS(−) RIPA lysis buffer (manufactured by Nacalai Tesque, Inc.) was added to the conjunctival tissue collected, and the tissue was soaked and incubated at 4° C. for 30 minutes, followed by homogenization. […] After a protein concentration was measured using Nano Drop (manufactured by Thermo Scientific, Inc.), the protein concentration was adjusted to 500 ng/μL. Subsequently, the amount of Muc5ac included in the protein solution prepared was quantified using the same ELISA assay as in Example 1.

[3] = system: Muc5ac in conjunctival tissue; experiment: In vivo instillation, then PAS staining of conjunctival tissue sections; design: species or system white rabbit; conditions: 100 μM instilled 4 times per day, FIG. 5
Procedure: as §1
Further, the conjunctival tissues from the control group and the administration group were subjected to PAS staining, which stains neutral polysaccharides and glycoproteins. Specifically, a conjunctival tissue was collected from a rabbit; the conjunctive tissue collected was cut into regions at the upper, nasal, lower, and ear sides; and paraffin sections were prepared. Next, after washed with distilled water for deparaffinization, the sections were immersed in 3% acetic acid aqueous solution and soaked in an alcian blue solution for 30 minutes. After washed with distilled water, the sections were soaked in 1% periodic acid aqueous solution for 10 minutes, washed with running water for 5 minutes, and washed with distilled water. After soaked in a cold Schiff reagent for 10 minutes, the sections were soaked in sulfurous acid solution for 3 minutes and subjected to sulfurous acid solution treatment. […]

[4] = system: Muc5ac secretion; experiment: In vivo instillation, then Muc5ac secreted into culture supernatant of sampled conjunctival tissue (ELISA); design: species or system white rabbit; conditions: 100 μM instilled 4 times per day for 3 days; tissue soaked in HBSS 1.5 and 3 hours, n=6, FIG. 4a
Procedure: In order to examine whether or not Compound 1 enhances Muc5ac secretion, in vivo experiments were carried out using white rabbits (Slc:JW/CSKSlc:NZW strain).
as §1
After 3 days with the above administration, each white domestic rabbit was euthanized and its conjunctival tissue was sampled using a trephine with a diameter of 5 mm. The sample was soaked in an HBSS; its culture supernatant was collected after an hour and a half; and further, after 3 hours, its culture supernatant and conjunctival tissue were collected. The amount of Muc5ac included in the culture supernatant was quantified using the same ELISA assay as in Example 1.

[5] = system: corneal epithelial tissue wound; experiment: Wound healing effect on corneal epithelial tissue in vivo (fluorescein staining, wound area); design: species or system white rabbit; conditions: 100 μM solution instilled 30-50 μL/dose 4 times per day
Procedure: In order to examine an wound healing effect of Compound 1 on an corneal epithelial tissue, in vivo experiments were carried out using white rabbits (Slc:JW/CSKSlc:NZW strain).
as §1, with “a trephine with a diameter of 8 mm was used to create a wound on a corneal epithelial tissue” for “the right eye”, “rabbit. From the day of creating the wound, the test group” for “rabbit”, “control group” for “left eye”, “solution” for “solution as a control”, “n=5.” for “n=6.”
In order to determine the area of the wound on the corneal epithelial tissue, a physiological saline solution and a fluorescein test paper were used to perform fluorescein staining of the corneal epithelial tissue; and a time course change in the area of the wound on the corneal epithelium was observed while its photographs were taken. The wound area was image-processed using Image J software and was statistically analyzed.

SMILES: O=C1NC(CO)C(=O)N2CC(O)CC12 [Compound 1, cyclo-trans-4-L-hydroxyprolyl-L-serine]
- amount of Muc5ac in culture supernatant, concentration dependence ([1]; 0, 1, 10 or 100 μM, soaked 6 hours, n=5, FIG. 2): increased depending on the concentration
- difference in the amount of Muc5ac between presence and absence of Compound 1, across culture times ([1]; 100 μM in HBSS, at 6 hours of culturing): most prominent
- amount of Muc5ac in culture supernatant compared with absence of Compound 1 ([1]; 100 μM in HBSS, cultured 3 hours, n=5, FIG. 1(a)): increased
- amount of Muc5ac in culture supernatant in the presence of Compound 1 ([1]; 100 μM in HBSS, cultured 6 hours): increase
- amount of Muc5ac in culture supernatant in the presence of Compound 1 ([1]; 100 μM in HBSS, cultured 12 hours): increase
- amount of Muc5ac protein in the conjunctival tissue versus control group [2]: approximately equal
- amount of Muc5ac (stained red-purple) in the conjunctival tissue by PAS staining versus control group [3]: apparently lower
- amount of Muc5ac in culture supernatant of conjunctival tissue compared with control group [4]: remarkably high
- wound area of corneal epithelium versus control group ([5]; from Day 1, t-test p<0.01, FIG. 3): smaller
- time required for complete cure of the wound ([5]; control group 5 days): 4 days
